Reference: patent publication US11596611B2, “Hepatitis B antiviral agents” (ENANTA PHARMACEUTICALS, INC., priority 2017, dated 2023)

Tests used:
[1] = Compound toxicity by ATPLite (total ATP levels); assay type: cell-based; settings: human, three days after compound addition, 50% reduction of total ATP
Description: Methods: HepAD38 cells are maintained as previously reported (Ladner et al, Antimicrob. Agents Chemother. 1997, […], 1715). Briefly, cells are passaged upon attaining confluency in DMEM/F12 media in the presence of 10% FBS, Penn/Strep, 250 μg/mL G418, and 1 ug/ml tetracycline. Novel compounds are screened by first washing cells three times with PBS to remove tetracycline, and plating in 96 well plates at 35,000 cells/well. Compounds dissolved in DMSO are then diluted 1:200 into wells containing cells. Five days after compound addition, material is harvested for analysis. For an extended 8 days analysis, cells are plated and treated as described above, but media and compound are refreshed on d2 and d5 post initial treatment.
Compound toxicity is evaluated by seeding cells at 15,000 cells/well and treating with compound as described above.

HBV = assay: HepAD38 antiviral assay: reduction of viral product accumulation (virion DNA by qPCR, HBsAg or HBeAg by ELISA); assay type: cell-based, hepatitis B virus; settings: Hepatitis B virus, 120 h; HepAD38 cells, five days after compound addition; 50% reduction of viral product vs no drug controls; read-out: HepAD38 EC50
Procedure, shortened: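 Readouts were qPCR of lysed virion DNA plus ELISA for HBsAg or HBeAg, samples diluted into linear range. HepAD38 cells, washed free of tetracycline, received compound diluted 1:200 from DMSO for 5 days; 8-day variant refreshed media and compound on days 2 and 5.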

SMILES: C[C@@H](O)[C@@H](O)[C@]1(O)C2CCC1C[C@@H](S(=O)(=O)c1cc(C(=O)Nc3ccc(F)c(F)c3)ccc1Cl)C2 (mixture of isomers) [Example 172]
- CC50 at 3 days ([1]; class symbols): > 25000 nM
- EC50 (HBV): < 104 nM

SMILES: C[C@H](O)[C@@H](O)[C@]1(O)C2CCC1C[C@@H](S(=O)(=O)c1cc(C(=O)Nc3ccc(F)c(F)c3)ccc1Cl)C2 (mixture of isomers) [Example 173]
- CC50 at 3 days ([1]; numeric bounds): > 6250 nM
- EC50 (HBV): < 104 nM

SMILES: C[C@@H](O)[C@@H](O)[C@]1(O)C2CCC1C[C@@H](S(=O)(=O)c1cc(C(=O)Nc3cc(F)c(F)c(F)c3)ccc1Cl)C2 (racemic) [Example 4]
- CC50 at 3 days ([1]; numeric bounds): > 12500 nM
- EC50 (HBV): < 104 nM

SMILES: C[C@H](O)[C@@H](O)[C@]1(O)C2CCC1C[C@@H](S(=O)(=O)c1cc(C(=O)Nc3cc(F)c(F)c(F)c3)ccc1Cl)C2 (racemic) [Example 5]
- CC50 at 3 days ([1]; numeric bounds): > 3000 nM
- EC50 (HBV): < 104 nM

SMILES: O=C(Nc1cc(F)c(F)c(F)c1)c1ccc(Cl)c(S(=O)(=O)[C@H]2CC3CCC(C2)[C@@]3(O)C(O)CO)c1 (mixture of isomers) [Example 10]
- CC50 at 3 days ([1]; numeric bounds): > 12500 nM
- EC50 (HBV): < 104 nM

SMILES: [N-]=[N+]=NCC(O)[C@]1(O)C2CCC1C[C@@H](S(=O)(=O)c1cc(C(=O)Nc3cc(F)c(F)c(F)c3)ccc1Cl)C2 (mixture of isomers) [Example 11]
- CC50 at 3 days ([1]; numeric bounds): > 6250 nM
- EC50 (HBV): < 104 nM

SMILES: CC(=O)OC[C@H](O)[C@@H](O)[C@@]1(O)C2CC[C@H]1C[C@H](S(=O)(=O)c1cc(C(=O)Nc3cc(F)c(F)c(F)c3)ccc1Cl)C2 (relative stereo) [Example 68]
- CC50 at 3 days ([1]; class symbols): > 25000 nM
- EC50 (HBV): < 104 nM

SMILES: C[C@@H](O)COC[C@]1(O)C2CCC1C[C@@H](S(=O)(=O)c1cc(C(=O)Nc3cc(F)c(F)c(F)c3)ccc1Cl)C2 (single isomer, unassigned) [Example 130]
- CC50 at 3 days ([1]; numeric bounds): > 12500 nM
- EC50 (HBV): < 104 nM

SMILES: C[C@@H](O)[C@@H](O)[C@@]1(O)C2CC[C@H]1C[C@H](S(=O)(=O)c1cc(C(=O)Nc3cc(F)c(F)c(F)c3)ccc1Cl)C2 (single isomer, unassigned) [Example 136]
- CC50 at 3 days ([1]; numeric bounds): > 12500 nM
- EC50 (HBV): < 104 nM

SMILES: C[C@H](O)[C@@H](O)[C@@]1(O)C2CC[C@H]1C[C@H](S(=O)(=O)c1cc(C(=O)Nc3cc(F)c(F)c(F)c3)ccc1Cl)C2 (single isomer, unassigned) [Example 137]
- CC50 at 3 days ([1]; numeric bounds): > 6250 nM
- EC50 (HBV): < 104 nM

SMILES: C[C@@H](O)[C@H](O)COC[C@]1(O)C2CCC1C[C@@H](S(=O)(=O)c1cc(C(=O)Nc3cc(F)c(F)c(F)c3)ccc1Cl)C2 (single isomer, unassigned) [Example 163]
- CC50 at 3 days ([1]; class symbols): > 25000 nM
- EC50 (HBV): < 104 nM

SMILES: C[C@@H](O)[C@@H](O)[C@]1(O)C2CCC1C[C@@H](S(=O)(=O)c1cc(C(=O)Nc3ccc(F)c(F)c3)ccc1Cl)C2 (single isomer, unassigned) [Example 180]
- CC50 at 3 days ([1]; class symbols): > 25000 nM
- EC50 (HBV): < 104 nM

SMILES: C[C@H](O)[C@@H](O)[C@]1(O)C2CCC1C[C@@H](S(=O)(=O)c1cc(C(=O)Nc3ccc(F)c(F)c3)ccc1Cl)C2 (single isomer, unassigned) [Example 182]
- CC50 at 3 days ([1]; class symbols): > 25000 nM
- EC50 (HBV): < 104 nM

SMILES: C[C@@H](O)[C@H](O)[C@]1(O)C2CCC1C[C@@H](S(=O)(=O)c1cc(C(=O)Nc3ccc(F)c(F)c3)ccc1Cl)C2 (single isomer, unassigned) [Example 183]
- CC50 at 3 days ([1]; class symbols): > 25000 nM
- EC50 (HBV): < 104 nM

SMILES: CC(C)N(C[C@]1(O)C2CCC1C[C@@H](S(=O)(=O)c1cc(C(=O)Nc3ccc(F)c(F)c3)ccc1Cl)C2)C(C)C [Example 342]
- EC50 (HBV): < 104 nM

SMILES: O=C1NCC([C@H](O)[C@@H](O)[C@]2(O)C3CCC2C[C@@H](S(=O)(=O)c2cc(C(=O)Nc4ccc(F)c(F)c4)ccc2Cl)C3)O1 (some centres unmarked) [Example 348]
- EC50 (HBV): < 104 nM

SMILES: O=C(Nc1ccc(F)c(F)c1)c1ccc(Cl)c(S(=O)(=O)[C@@H]2CC3CC[C@@H](C2)[C@@]3(O)C(O)c2ncccc2C(F)F)c1 (some centres unmarked) [Example 349]
- EC50 (HBV): 100 to 200 nM

SMILES: O=C(Nc1ccc(F)c(F)c1)c1ccc(Cl)c(S(=O)(=O)[C@@H]2CC3CC[C@@H](C2)[C@@]3(O)C(O)c2cccc(C(F)F)n2)c1 (some centres unmarked) [Example 350]
- EC50 (HBV): < 104 nM
